# Experimental data taken from patent publication US11045559B2, “Reactive fluorogenic compound and nanocomposite for sensing hydrogen sulfide comprising the same” (KOREA INSTITUTE OF SCIENCE AND TECHNOLOGY, priority 2017, dated 2021).
# Assay: Fluorescence response and chemoselectivity of ABR in organic media
# Description: Specifically, in order to devise a H2S-responsive fluorogenic molecular probe, the present inventors have adopted a reaction strategy based on the chemoselective reduction of aryl azides to amines, which is triggered through nucleophilic attack by a hydrosulfide anion (HS^−), which is the main active form of H2S under physiological conditions. In the probe design, the 4-azidobenzyl group was selected as a self-immolative aryl azide linker, and it was linked to a fluorescent emitter, resorufin, at its 7-hydroxy position. Since the 7-hydroxy substituent is known to efficiently quench the fluorescence of resorufin, the designed molecular probe, azidobenzylresorufin (ABR), is anticipated to be nonfluorescent and able to undergo self-immolative cleavage upon reaction with HS^−, to release a 1,6-elimination product (azaquinone methide) and resorufin with fluorescence recovery. […] Along the resulting fluorescence spectrum, the ^1H-NMR analysis confirmed that the fluorescent product is resorufin recovered through the self-immolative release from ABR after reduction by H2S (FIG. 3).
smiles,measurement,setting,value
"[N-]=[N+]=Nc1ccc(COc2ccc3nc4ccc(=O)cc-4oc3c2)cc1 [ABR, 7-(4-azidobenzyloxy)-3H-phenoxazin-3-one]",fluorescence response toward H2S,"NaHS present vs absent, FIG. 2a",fluorescence turn-on response toward H2S
same,chemoselectivity in spectroscopic response,"reactive sulfur, oxygen, nitrogen species 100 μM (GSH 1 mM) in acetonitrile, FIG. 2b",responded only to H2S
